Reference: PubChem BioAssay (NCI)
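In this assay, cells in 96-well plates receive the compound at five concentrations for 48 hours. Endpoints are linearly interpolated between the surrounding concentrations. GI50 marks 50% less growth. TGI: concentration producing complete growth inhibition.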

How the values were obtained:
Experiment in all cases: NCI-60 cell line screen, 48 h
[1] = test system: ACHN renal
[2] = test system: 786-0 renal
[3] = test system: LOX IMVI melanoma
[4] = test system: T-47D breast
[5] = test system: HS 578T breast
[6] = test system: MALME-3M melanoma
[7] = test system: A549 NSCLC
[8] = test system: HCC-2998 colon
[9] = test system: M14 melanoma
[10] = test system: OVCAR-4 ovarian
[11] = test system: MCF7 breast
[12] = test system: SNB-75 CNS
[13] = test system: MDA-MB-231 breast
[14] = test system: NCI-H23 lung
[15] = test system: OVCAR-5 ovarian
[16] = test system: HCT-15 colon
[17] = test system: HCT-116 colon
[18] = test system: CCRF-CEM leukemia
[19] = test system: SNB-19 CNS
[20] = test system: OVCAR-8 ovarian
[21] = test system: NCI-H460 lung
[22] = test system: UACC-257 melanoma
[23] = test system: NCI-H226 lung
[24] = test system: BT-549 breast
[25] = test system: SF-268 CNS
[26] = test system: HL-60(TB) leukemia
[27] = test system: IGROV1 ovarian
[28] = test system: UACC-62 melanoma

Fc1ccc2c(c1)C1=C(CCC2)C(c2ccc(Cl)cc2)NC(=S)N1 (stereo not given)
GI50 [1]: 29.5 µM | TGI [1]: > 100 µM | GI50 [2]: 25 µM | TGI [2]: > 100 µM | GI50 [3]: 36 µM | TGI [3]: > 100 µM | GI50 [4]: 54.4 µM | TGI [4]: > 100 µM | GI50 [5]: 50.5 µM | TGI [5]: > 100 µM | GI50 [6]: 22.6 µM | TGI [6]: 80.2 µM | GI50 [7]: 20.7 µM | TGI [7]: > 100 µM | GI50 [8]: 43.2 µM | TGI [8]: > 100 µM | GI50 [9]: 40.9 µM | TGI [9]: > 100 µM | GI50 [10]: 44.8 µM | TGI [10]: > 100 µM | GI50 [11]: 26.6 µM | TGI [11]: > 100 µM | GI50 [12]: 69.9 µM | TGI [12]: > 100 µM | GI50 [13]: 24.2 µM | TGI [13]: > 100 µM | GI50 [14]: 84.7 µM | TGI [14]: > 100 µM | GI50 [15]: > 100 µM | TGI [15]: > 100 µM | GI50 [16]: 26.2 µM | TGI [16]: > 100 µM | GI50 [17]: 26.1 µM | TGI [17]: > 100 µM | GI50 [18]: 31.8 µM | TGI [18]: > 100 µM | GI50 [19]: 77.9 µM | TGI [19]: > 100 µM | GI50 [20]: 25.8 µM | TGI [20]: > 100 µM | GI50 [21]: 32.7 µM | TGI [21]: > 100 µM | GI50 [22]: 21.5 µM | TGI [22]: 70 µM | GI50 [23]: 35.2 µM | TGI [23]: > 100 µM | GI50 [24]: > 100 µM | TGI [24]: > 100 µM | GI50 [25]: 83.8 µM | TGI [25]: > 100 µM | GI50 [26]: 7.51 µM | TGI [26]: > 100 µM | GI50 [27]: 10.3 µM | TGI [27]: > 100 µM | GI50 [28]: 33.6 µM
